This note sets out measurements from US20130281449A1, “Oxazine Derivatives and their Use in the Treatment of Neurological Disorders” (NOVARTIS AG, priority 2011, published 2013).

Counter-ions that a name gives are not always drawn.

A word on the IC50: it is the midpoint of a concentration-inhibition curve.

In assay [1] the test system is Cellular Release of Amyloid Peptide 1-40. As to the kind of experiment: Test 4: Inhibition of Cellular Release of Amyloid Peptide 1-40. Format: cell-based, Chinese hamster. As to conditions: Cricetulus griseus, 24 h; read-out: Amyloid-β1-40 release IC50. Here is the method: Chinese hamster ovary cells are transfected with the human gene for amyloid precursor protein. The cells are plated at a density of 8000 cells/well into 96-well microtiter plates and cultivated for 24 hours in DMEM cell culture medium containing 10% FCS. The test compound is added to the cells at various concentrations, and the cells are cultivated for 24 hours in the presence of the test compound. […] The potency of the compound is calculated from the percentage of inhibition of amyloid peptide release as a function of the test compound concentration.

The target in assay [2] is Human BACE-1 (Homo sapiens, UniProt P56817). In words: Test 1: Inhibition of Human BACE-1. Format: biochemical. The following applies: mean IC50 values in Test 1; recombinant BACE-1, pH 4.5. On the procedure:
Test 1: Inhibition of Human BACE-1
IC50 values are calculated from percentage of inhibition of BACE-1 activity as a function of the test compound concentration.

Chain of Human BACE-1 (P56817 46-457 limits assumed): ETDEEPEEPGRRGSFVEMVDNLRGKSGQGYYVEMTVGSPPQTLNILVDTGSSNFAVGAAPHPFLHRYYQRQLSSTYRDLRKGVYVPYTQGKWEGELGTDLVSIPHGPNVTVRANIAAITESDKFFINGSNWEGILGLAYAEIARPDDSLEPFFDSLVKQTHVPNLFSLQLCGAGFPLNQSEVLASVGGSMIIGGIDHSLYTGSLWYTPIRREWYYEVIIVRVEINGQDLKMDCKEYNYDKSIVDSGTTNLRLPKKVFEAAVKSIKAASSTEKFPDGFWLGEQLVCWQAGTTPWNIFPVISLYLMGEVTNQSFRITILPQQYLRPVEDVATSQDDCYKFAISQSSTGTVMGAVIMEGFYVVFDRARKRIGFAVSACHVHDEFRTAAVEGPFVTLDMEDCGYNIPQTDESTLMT

Regarding `Cc1cc(C#N)cnc1C(=O)Nc1ccc(F)c(C2(C)COC(CF)(CF)C(N)=N2)c1` (racemic) [Example 37, 5-Cyano-3-methyl-pyridine-2-carboxylic acid [3-(5-amino-6,6-bis-fluoromethyl-3-methyl-3,6-dihydro-2H-[1,4]oxazin-3-yl)-4-fluoro-phenyl]-amide], the IC50 in assay [1] was determined as 0.004 µM. Consider `COCc1cc(Cl)cnc1C(=O)Nc1ccc(F)c([C@]2(C(F)F)COCC(N)=N2)c1` [Example 1, 5-Chloro-3-methoxymethyl-pyridine-2-carboxylic acid [3-((R)-5-amino-3-difluoromethyl-3,6-dihydro-2H-[1,4]oxazin-3-yl)-4-fluoro-phenyl]-amide], for which the IC50 worked out at 0.018 µM in assay [2] and 0.006 µM in assay [1]. Taken in the same sequence, the figures for `N#Cc1cnc(C(=O)Nc2ccc(F)c([C@]3(C(F)F)COCC(N)=N3)c2)c(Cl)c1` [Example 2, 3-Chloro-5-cyano-pyridine-2-carboxylic acid [3-((R)-5-amino-3-difluoromethyl-3,6-dihydro-2H-[1,4]oxazin-3-yl)-4-fluoro-phenyl]-amide] were 0.032 µM and 0.011 µM. Taken in the same sequence, the figures for `[2H]C([2H])([2H])Oc1cnc(C(=O)Nc2ccc(F)c([C@]3(C(F)F)COCC(N)=N3)c2)c(N)n1` [Example 3, 3-Amino-5-tris-deutero-methoxy-pyrazine-2-carboxylic acid [3-((R)-5-amino-3-difluoromethyl-3,6-dihydro-2H-[1,4]oxazin-3-yl)-4-fluoro-phenyl]-amide] were 0.025 µM and 0.009 µM. Taken in the same sequence, the figures for `C#CCOc1cnc(C(=O)Nc2ccc(F)c([C@]3(C(F)F)COCC(N)=N3)c2)c(N)n1` [Example 4, 3-Amino-5-prop-2-ynyloxy-pyrazine-2-carboxylic acid [3-((R)-5-amino-3-difluoromethyl-3,6-dihydro-2H-[1,4]oxazin-3-yl)-4-fluoro-phenyl]-amide] were 0.002 µM and 0.001 µM. For the compound `NC1=N[C@@](c2cc(NC(=O)c3ccc4c(Cl)c[nH]c4n3)ccc2F)(C(F)F)COC1` [Example 5, 3-Chloro-1H-pyrrolo[2,3-b]pyridine-6-carboxylic acid [3-((R)-5-amino-3-difIuoromethyl-3,6-dihydro-2H-[1,4]oxazin-3-yl)-4-fluoro-phenyl]-amide], the IC50 in assay [2] came out at 0.012 µM; in assay [1], 0.014 µM.

`NC1=N[C@@](c2cc(NC(=O)c3ncc(C(F)F)nc3N)ccc2F)(C(F)F)COC1` [Example 6, 3-Amino-5-difluoromethyl-pyrazine-2-carboxylic acid [3-((R)-5-amino-3-difluoromethyl-3,6-dihydro-2H-[1,4]oxazin-3-yl)-4-fluoro-phenyl]-amide]: the IC50 stood at 0.025 µM in assay [2] and 0.008 µM in assay [1].

Turning to `COc1cnc(C(=O)Nc2ccc(F)c([C@]3(C(F)F)COCC(N)=N3)c2)c(C)c1` [Example 7, 5-Methoxy-3-methyl-pyridine-2-carboxylic acid [3-((R)-5-amino-3-difluoromethyl-3,6-dihydro-2H-[1,4]oxazin-3-yl)-4-fluoro-phenyl]-amide hydrochloride], the IC50 in assay [2] was 0.13 µM; in assay [1], 0.011 µM. Taken in the same sequence, the figures for `Cc1cc(C(F)F)cnc1C(=O)Nc1ccc(F)c([C@]2(C(F)F)COCC(N)=N2)c1` [Example 8, 5-Difluoromethyl-3-methyl-pyridine-2-carboxylic acid [3-((R)-5-amino-3-difluoromethyl-3,6-dihydro-2H-[1,4]oxazin-3-yl)-4-fluoro-phenyl]-amide hydrochloride] were 0.054 µM and 0.008 µM.

Regarding `[2H]C([2H])([2H])OCc1cc(F)cnc1C(=O)Nc1ccc(F)c([C@]2(C(F)F)COCC(N)=N2)c1` [Example 9, 5-Fluoro-3-trideuteromethoxymethyl-pyridine-2-carboxylic acid [3-((R)-5-amino-3-difluoromethyl-3,6-dihydro-2H-[1,4]oxazin-3-yl)-4-fluoro-phenyl]-amide], the IC50 in assay [2] was determined as 0.11 µM; in assay [1] it was 0.036 µM. Taken in the same sequence, the figures for `[2H]C([2H])([2H])OCc1cc(OC([2H])([2H])[2H])cnc1C(=O)Nc1ccc(F)c([C@]2(C(F)F)COCC(N)=N2)c1` [Example 10, 5-Trideuteromethoxy-3-trideuteromethoxymethyl-pyridine-2-carboxylic acid [3-((R)-5-amino-3-difluoromethyl-3,6-dihydro-2H-[1,4]oxazin-3-yl)-4-fluoro-phenyl]-amide] were 0.19 µM and 0.032 µM. On to `N#Cc1cnc(C(=O)Nc2ccc(F)c([C@]3(C(F)F)COCC(N)=N3)c2)c(N)c1` [Example 11, 3-Amino-5-cyano-pyridine-2-carboxylic acid [3-((R)-5-amino-3-difluoromethyl-3,6-dihydro-2H-[1,4]oxazin-3-yl)-4-fluoro-phenyl]-amide], for which the half-maximal inhibitory concentration (IC50) was 0.018 µM in assay [2] and 0.005 µM in assay [1].

In the case of `NC1=N[C@@](c2cc(NC(=O)c3ncc(C(F)F)cc3N)ccc2F)(C(F)F)COC1` [Example 12, 3-Amino-5-difluoromethyl-pyridine-2-carboxylic acid [3-((R)-5-amino-3-difluoromethyl-3,6-dihydro-2H-[1,4]oxazin-3-yl)-4-fluorophenyl]-amide], the figures for the half-inhibitory concentration (IC50) in assay [2] and in assay [1] were 0.038 µM and 0.01 µM, respectively. Taken in the same sequence, the figures for `[2H]C([2H])([2H])Oc1cnc(C(=O)Nc2ccc(F)c([C@]3(C(F)F)COCC(N)=N3)c2)c(C)c1` [Example 13, 5-Trideuteromethoxy-3-methyl-pyridine-2-carboxylic acid [3-((R)-5-amino-3-difluoromethyl-3,6-dihydro-2H-[1,4]oxazin-3-yl)-4-fluoro-phenyl]-amide] were 0.11 µM and 0.022 µM. Turning to `Cc1cc(C#N)cnc1C(=O)Nc1cc(F)c(F)c([C@]2(C(F)F)COCC(N)=N2)c1` [Example 14, 5-Cyano-3-methyl-pyridine-2-carboxylic acid [3-((R)-5-amino-3-difluoromethyl-3,6-dihydro-2H-[1,4]oxazin-3-yl)-4,5-difluoro-phenyl]-amide], the IC50 in assay [2] was found to be 0.02 µM; in assay [1] it was 0.009 µM. With `[2H]C([2H])([2H])Oc1cnc(C(=O)Nc2cc(F)c(F)c([C@]3(C(F)F)COCC(N)=N3)c2)c(Cl)c1` [Example 15, 3-Chloro-5-trideuteromethoxy-pyridine-2-carboxylic acid [3-((R)-5-amino-3-difluoromethyl-3,6-dihydro-2H-[1,4]oxazin-3-yl)-4,5-difluoro-phenyl]-amide], the IC50 in assay [2] is 0.032 µM; in assay [1], 0.021 µM. For `[2H]c1nc(C(=O)Nc2cc(F)c(F)c([C@]3(C(F)F)COCC(N)=N3)c2)c(C([2H])([2H])[2H])c([2H])c1Cl` [Example 16, 4,6-Dideutero-5-chloro-3-trideuteromethyl-pyridine-2-carboxylic acid [3-((R)-5-amino-3-difluoromethyl-3,6-dihydro-2H-[1,4]oxazin-3-yl)-4,5-difluoro-phenyl]-amide] the same measures were 0.014 µM and 0.014 µM. For `C[C@@]1(c2cc(NC(=O)c3ncc(C#N)cc3Cl)ccc2F)CO[C@@](C)(C(F)(F)F)C(N)=N1` [Example 17, 3-Chloro-5-cyano-pyridine-2-carboxylic acid [3-((3R,6R)-5-amino-3,6-dimethyl-6-trifluoromethyl-3,6-dihydro-2H-[1,4]oxazin-3-yl)-4-fluoro-phenyl]-amide hydrochloride], the half-inhibitory concentration (IC50) worked out at 0.009 µM in assay [2] and 0.004 µM in assay [1]. In the case of `COc1cnc(C(=O)Nc2ccc(F)c([C@]3(C)CO[C@@](C)(C(F)(F)F)C(N)=N3)c2)c(Cl)c1` [Example 18, 3-Chloro-5-methoxy-pyridine-2-carboxylic acid [3-((3R,6R)-5-amino-3,6-dimethyl-6-trifluoromethyl-3,6-dihydro-2H-[1,4]oxazin-3-yl)-4-fluoro-phenyl]-amide hydrochloride], the IC50 in assay [2] was found to be 0.02 µM; in assay [1], 0.009 µM.

As to `Cc1cc(Cl)cnc1C(=O)Nc1ccc(F)c([C@]2(C)CO[C@@](C)(C(F)(F)F)C(N)=N2)c1` [Example 20, 5-Chloro-3-methyl-pyridine-2-carboxylic acid [3-((3R,6R)-5-amino-3,6-dimethyl-6-trifluoromethyl-3,6-dihydro-2H-[1,4]oxazin-3-yl)-4-fluoro-phenyl]-amide hydrochloride], the IC50 came out at 0.005 µM in assay [2] and 0.026 µM in assay [1]. Taken in the same sequence, the figures for `C[C@@]1(c2cc(NC(=O)c3ncc(Cl)cc3F)ccc2F)CO[C@@](C)(C(F)(F)F)C(N)=N1` [Example 21, 5-Chloro-3-fluoro-pyridine-2-carboxylic acid [3-((3R,6R)-5-amino-3,6-dimethyl-6-trifluoromethyl-3,6-dihydro2H-[1,4]oxazin-3-yl)-4-fluoro-phenyl]-amide hydrochloride] were 0.012 µM and 0.009 µM.

As for `Cl.[2H]C([2H])([2H])Oc1cnc(C(=O)Nc2ccc(F)c([C@]3(C)CO[C@@](C)(C(F)(F)F)C(N)=N3)c2)c(Cl)c1` [Example 22, 3-Chloro-5-trideutero-methoxy-pyridine-2-carboxylic acid [3-((3R,6R)-5-amino-3,6-dimethyl-6-trifluoromethyl-3,6-dihydro-2H-[1,4]oxazin-3-yl)-4-fluoro-phenyl]-amide hydrochloride], the IC50 in assay [2] is 0.02 µM; in assay [1] it was 0.007 µM. With `Cc1cc(F)cnc1C(=O)Nc1ccc(F)c([C@]2(C)CO[C@@](C)(C(F)(F)F)C(N)=N2)c1` [Example 35, 5-Fluoro-3-methyl-pyridine-2-carboxylic acid [3-((3R,6R)-5-amino-3,6-dimethyl-6-trifluoro-methyl-3,6-dihydro-2H-[1,4]oxazin-3-yl)-4-fluoro-phenyl]-amide], the IC50 in assay [1] was determined as 0.088 µM.
